# From US20240245711A1, “A 19-NOR C3,3-DISUBSTITUTED C21-N-PYRAZOLYL STEROID FOR THE TREATMENT OF MAJOR DEPRESSIVE DISORDER” (Sage Therapeutics, Inc., priority 2021, published 2024)
# “Also recorded” adds a separate entry of the source.
# System: adult subjects with Major Depressive Disorder
# Test: Phase 3 open-label 1-year study: safety and tolerability (TEAEs, SAEs, C-SSRS)
# Assay type: in vivo, human
# Conditions: for Subjects reporting TEAEs leading to dose reduction: Low dose cohort; for Subjects with Treatment Cycle Period TEAE / Subjects with Treatment Period TEAE: Study Period 1 only
# Protocol: Primary Objective: To determine the safety and tolerability of initial treatment and re-treatment(s) with Compound (1) in adults with Major Depressive Disorder (MDD) currently experiencing a major depressive episode (MDE) over a 1-year period.
# Study Population: Subjects were 18-75 years old, diagnosed with major depressive disorder (MDD) with a MADRS total score of ≥28 and a HAM-D total score of ≥20 at Screening and Day 1 (prior to dosing).
# Treatment Groups: The 30 mg and 50 mg dose groups were separated by time of enrollment. The study is comprised of two cohorts: one with Compound (1) 30 mg as a starting dose (30 mg Cohort: n=725), an initial cohort with Compound (1) 50 mg as a starting dose (50 mg Cohort: n=199). A patient receiving Compound (1) 30 mg could be dose reduced to 20 mg and patients receiving Compound (1) 50 mg could be dose reduced to 40 mg (based on tolerability). In all cohorts, Compound (1) is self-administered by patients as an oral therapy once nightly with food for 14 days.
# The study has a Screening Period of up to 28 days, a 14-day Treatment Period, and up to 1 year of Follow-up. FIG. 1 is an overview of the study.
# Antidepressants were permitted provided subjects were on a stable dose for at least 60 days prior to Day 1 and agreed to continue on the stable dose through the follow-up period (Day 42). Initiation of new antidepressants or any other medications that may potentially have an impact on efficacy or safety endpoints were not allowed between screening and completion of the Day 42 assessments.
# Eligible subjects were given Compound (1)—to be taken at home in the evening with meal.
# Subjects who continued in the Observation Period were monitored remotely via PHQ-9 assessment every two weeks. If PHQ-9 score was >=10 at any assessment, PHQ-9 assessment was switch to every week until the score came down below 10 or the subject was dosed with Compound (1) in a subsequent cycle, whichever was earlier. A subject was to come back to the site for HAM-D assessment within a week of PHQ-9 score >=10; if the HAM-D total score >=20 and at least 56 days had elapsed since the last dose of Compound (1), another dosing cycle of Compound (1) were to start. If any of these criteria were not met, the subject couldn't be treated with Compound (1) at that time. Without the trigger of PHQ-9>=10 the subject was to have a clinic visit every 8 weeks. A subject could have at most 5 cycles of treatment within a year. FIG. 2 is a depiction of the eligibility criteria of the study.
# Dose reduction from 30 mg to 20 mg or 50 mg to 40 mg was allowed in any treatment cycle if the safety and/or tolerability of the subject so warrants. […] Subjects who dose reduced from 30 mg to 20 mg still started with 30 mg in the next treatment cycle.
# The cohorts pertaining to the different doses that the subjects received were defined as following: • 50 mg cohort: This cohort includes subjects who have initiated treatment with 50 mg and received re-treatment with 50 mg only. • 30 mg cohort: This cohort includes subjects who have initiated treatment with 30 mg regardless of the dose they have received in re-treatments. • Low dose cohort: This cohort includes subjects who have initiated treatment with 30 mg and received re-treatment with 30 mg only. • Dose switch cohort: This cohort includes subjects who have received initial treatment with 30 mg and at least one subsequent re-treatment with 50 mg. • Study Period X: starts on the date of the first dose of Compound (1) in cycle X and goes up to one day prior to the first dose of the next cycle. […]
# [1] = Low Dose Cohort, ATD use at period-specific baseline No, Study Period 3
# [2] = Low Dose Cohort, ATD use at period-specific baseline No, Study Period 4
# [3] = Low Dose Cohort, ATD use at period-specific baseline No, Study Period 5
# [4] = Low Dose Cohort, ATD use at period-specific baseline Yes, Study Period 1
# [5] = Low Dose Cohort, ATD use at period-specific baseline Yes, Study Period 2
# [6] = Low Dose Cohort, ATD use at period-specific baseline Yes, Study Period 3
# [7] = Low Dose Cohort, ATD use at period-specific baseline Yes, Study Period 4
# [8] = Low Dose Cohort, ATD use at period-specific baseline Yes, Study Period 5
# [9] = overall study population (Example 5)
smiles,measurement,setting,value
"C[C@@]1(O)CC[C@H]2[C@H](CC[C@@H]3[C@@H]2CC[C@]2(C)[C@@H](C(=O)Cn4cc(C#N)cn4)CC[C@@H]32)C1 [Compound (1), 1-(2-((3R,5R,8R,9R,10S,13S,14S,17S)-3-hydroxy-3,13-dimethylhexadecahydro-1H-cyclopenta[a]phenanthren-17-yl)-2-oxoethyl)-1H-pyrazole-4-carbonitrile]",Subjects with at least one Treatment period AE,"Low Dose Cohort, ATD use at period-specific baseline No, Study Period 2",51 (43.2%)
same,Subjects with a TEAE leading to study drug discontinuation,[1],0%
same,Subjects with a Treatment cycle period AE leading to study withdrawal,[1],1 (2.4%)
same,Subjects with at least one TEAE,[1],21 (51.2%)
same,Subjects with at least one Treatment cycle period TEAE,[1],14 (34.1%)
same,Subjects with at least one Treatment cycle period serious TEAE,[1],1 (2.4%)
same,Subjects with at least one Treatment cycle period severe TEAE,[1],2 (4.9%)
same,Subjects with at least one Treatment period AE,[1],12 (29.3%)
same,Subjects with a TEAE leading to study drug discontinuation,[2],0%
same,Subjects with a Treatment cycle period AE leading to study withdrawal,[2],0%
same,Subjects with at least one TEAE,[2],8 (33.3%)
same,Subjects with at least one Treatment cycle period TEAE,[2],6 (25.0%)
same,Subjects with at least one Treatment cycle period serious TEAE,[2],0%
same,Subjects with at least one Treatment cycle period severe TEAE,[2],0%
same,Subjects with at least one Treatment period AE,[2],5 (20.8%)
same,Subjects with a TEAE leading to study drug discontinuation,[3],0%
same,Subjects with a Treatment cycle period AE leading to study withdrawal,[3],0%
same,Subjects with at least one TEAE,[3],3 (33.3%)
same,Subjects with at least one Treatment cycle period TEAE,[3],2 (22.2%)
same,Subjects with at least one Treatment cycle period serious TEAE,[3],0%
same,Subjects with at least one Treatment cycle period severe TEAE,[3],0%
same,Subjects with at least one Treatment period AE,[3],2 (22.2%)
same,Subjects with a TEAE leading to study drug discontinuation,[4],(1.5%)
same,Subjects with a Treatment cycle period AE leading to study withdrawal,[4],(1.9%)
same,Subjects with at least one TEAE,[4],(57.9%)
same,Subjects with at least one Treatment cycle period TEAE,[4],(50.4%)
same,Subjects with at least one Treatment cycle period serious TEAE,[4],(0.4%)
same,Subjects with at least one Treatment cycle period severe TEAE,[4],(2.3%)
same,Subjects with at least one Treatment period AE,[4],(47.4%)
same,Subjects with a TEAE leading to study drug discontinuation,[5],1 (1.1%)
same,Subjects with a Treatment cycle period AE leading to study withdrawal,[5],1 (1.1%)
same,Subjects with at least one TEAE,[5],48 (54.5%)
same,Subjects with at least one Treatment cycle period TEAE,[5],36 (40.9%)
same,Subjects with at least one Treatment cycle period serious TEAE,[5],1 (1.1%)
same,Subjects with at least one Treatment cycle period severe TEAE,[5],2 (2.3%)
same,Subjects with at least one Treatment period AE,[5],29 (33.0%)
same,Subjects with a TEAE leading to study drug discontinuation,[6],0%
same,Subjects with a Treatment cycle period AE leading to study withdrawal,[6],0%
same,Subjects with at least one TEAE,[6],19 (42.2%)
same,Subjects with at least one Treatment cycle period TEAE,[6],14 (31.1%)
same,Subjects with at least one Treatment cycle period serious TEAE,[6],0%
same,Subjects with at least one Treatment cycle period severe TEAE,[6],0%
same,Subjects with at least one Treatment period AE,[6],12 (26.7%)
same,Subjects with a TEAE leading to study drug discontinuation,[7],0%
same,Subjects with a Treatment cycle period AE leading to study withdrawal,[7],0%
same,Subjects with at least one TEAE,[7],7 (36.8%)
same,Subjects with at least one Treatment cycle period TEAE,[7],3 (15.8%)
same,Subjects with at least one Treatment cycle period serious TEAE,[7],0%
same,Subjects with at least one Treatment cycle period severe TEAE,[7],0%
same,Subjects with at least one Treatment period AE,[7],3 (15.8%)
same,Subjects with a TEAE leading to study drug discontinuation,[8],0%
same,Subjects with a Treatment cycle period AE leading to study withdrawal,[8],0%
same,Subjects with at least one TEAE,[8],6 (54.5%)
same,Subjects with at least one Treatment cycle period TEAE,[8],4 (36.4%)
same,Subjects with at least one Treatment cycle period serious TEAE,[8],0%
same,Subjects with at least one Treatment cycle period severe TEAE,[8],0%
same,Subjects with at least one Treatment period AE,[8],4 (36.4%)
same,Proportion of subjects reporting TEAEs,"Low Dose cohort, as printed in b423 (451/677)",66.6%
same,SAEs considered probably or possibly related to the study drug,"Low dose cohort (30 mg only), treatment cycle 1",none
same,Subjects reporting TEAEs leading to dose reduction,Cycle 1,3.4%
same,Subjects reporting TEAEs leading to dose reduction,Cycle 2,4.4%
same,Subjects reporting TEAEs leading to dose reduction,Cycle 3,2.3%
same,Subjects reporting TEAEs leading to dose reduction,Cycle 4 (0/43),0%
same,Subjects reporting TEAEs leading to dose reduction,Cycle 5,10%
same,Subjects reporting TEAEs leading to dose reduction,overall (32/645),5.0%
same,Subjects with at least one TEAE,Overall (N = 924),618 (66.9%)
same,Subjects with at least one TEAE leading to study drug discontinuation,Overall (N = 924),32 (3.5%)
same,Subjects with at least one TEAE leading to study withdrawal,Overall (N = 924),46 (5.0%)
same,Subjects with at least one serious TEAE,Overall (N = 924),27 (2.9%)
same,Subjects with at least one severe TEAE,Overall (N = 924),60 (6.5%)
same,Subjects with Treatment Cycle Period TEAE,30 mg Cohort (N = 725),368 (50.8%)
same,Subjects with Treatment Period TEAE,30 mg Cohort (N = 725),348 (48.0%)
same,Subjects with Treatment Cycle Period TEAE,50 mg Cohort (N = 199),117 (58.8%)
same,Subjects with Treatment Period TEAE,50 mg Cohort (N = 199),108 (54.3%)
same,Subjects with Treatment Cycle Period TEAE,Dose Switch Cohort (N = 80),31 (38.8%)
same,Subjects with Treatment Period TEAE,Dose Switch Cohort (N = 80),28 (35.0%)
same,Subjects with Treatment Cycle Period TEAE,Low Dose Cohort (N = 645),337 (52.2%)
same,Subjects with Treatment Period TEAE,Low Dose Cohort (N = 645),320 (49.6%)
same,Subjects with Treatment Cycle Period TEAE,Overall (N = 924),485 (52.5%)
same,Subjects with Treatment Period TEAE,Overall (N = 924),456 (49.4%)
same,Severity of the majority of TEAEs,all dose cohorts,mild to moderate; also recorded: mild or moderate
same,Suicidal ideation or suicidal behavior compared to baseline (C-SSRS),any study period or dose cohort,no signal for increased suicidal ideation or suicidal behavior
same,Tolerability,first course of Compound (1) 30 mg,generally well-tolerated
same,Most common AEs that led to dose reduction,in vivo,"Somnolence, Dizziness, Sedation and Headache"
same,TEAE diarrhea,[9],6.3%
same,TEAE dizziness,[9],9.1%
same,TEAE dry mouth,[9],5.5%
same,TEAE headache,[9],13.9%
same,TEAE insomnia,[9],5.4%
same,TEAE sedation,[9],8.7%
same,TEAE somnolence,[9],12.8%
same,TEAE upper respiratory infection,[9],6.3%
same,Overall safety observations with 50 mg versus safety findings with 30 mg,subjects receiving Compound (1) 50 mg,comparable
same,Subjects reporting SAEs,"treatment cycle 1, 50 mg cohort (5/199)",2.5%
same,Subjects reporting SAEs,"treatment cycle 1, Low Dose cohort (6/645)",0.9%
